Data: patent US6541621B1, “Hypoxia inducible promoter” (Purdue University Research Foundation, priority 1997, dated 2003)
Entries after “also recorded” stand apart in the source; their conditions may differ.

How the values were obtained:
rice suspension cells [1] = assay: GUS activity of promoter-uidA construct shot into rice suspension cells; format: cell-based; details: 2.38 kb region fused to the uidA gene
pdc genes = assay: Northern blot of total RNA from suspension cells under anaerobic conditions with or without cycloheximide, common pdc probe; format: cell-based, rice; details: 100 μM cycloheximide, suspension cells (Radon variety)
Description: Two-week-old uniform seedlings of rice (IR54 variety) were transferred to two liter flasks and subjected to anaerobic conditions. Seedlings were submerged in distilled water through which nitrogen gas was continuously bubbled. The anaerobic treatment was conducted in the dark at 25° C. Control seedlings were maintained in the dark at 25° C. Tissues were harvested and immersed in liquid nitrogen. Extraction of RNA was carried out according to the procedure of Logmann et al. (Anal Biochem 163: 16-20, 1987) with modifications. The frozen tissue (2 gm) was ground in liquid nitrogen in an autoclaved mortar and pestle, and transferred to autoclaved plastic centrifuge tubes. Extraction buffer (4M guanidine hydrochloride, 20 mM MES, 20 mM EDTA, 4 ml/g tissue) was added to each tube. After vigorous shaking and complete mixing the suspension was extracted once with phenol:chloroform:isoamyl alcohol (25:24:1) and centrifuged for 45 minutes at room temperature at 10,000 rpm in a Beckman centrifuge using JA-20 rotor. […] The RNA sample was subsequently washed with 80% ethanol and dissolved in DEPC-water after drying, and quantified spectrophotometrically. […]

[2] = tested on: Alcohol dehydrogenase (Adh) gene; assay: Northern blot of total RNA from suspension cells with or without cycloheximide, maize Adh probe; format: cell-based, rice; details: for Adh transcripts: cycloheximide in the presence of O2, suspension cells
Description: Two-week-old uniform seedlings of rice (IR54 variety) were transferred to two liter flasks and subjected to anaerobic conditions. Seedlings were submerged in distilled water through which nitrogen gas was continuously bubbled. The anaerobic treatment was conducted in the dark at 25° C. Control seedlings were maintained in the dark at 25° C. Tissues were harvested and immersed in liquid nitrogen. Extraction of RNA was carried out according to the procedure of Logmann et al. (Anal Biochem 163: 16-20, 1987) with modifications. The frozen tissue (2 gm) was ground in liquid nitrogen in an autoclaved mortar and pestle, and transferred to autoclaved plastic centrifuge tubes. Extraction buffer (4M guanidine hydrochloride, 20 mM MES, 20 mM EDTA, 4 ml/g tissue) was added to each tube. After vigorous shaking and complete mixing the suspension was extracted once with phenol:chloroform:isoamyl alcohol (25:24:1) and centrifuged for 45 minutes at room temperature at 10,000 rpm in a Beckman centrifuge using JA-20 rotor. Then 0.2 volumes of 1 M acetic acid [diethyl pyrocarbonate (DEPC) -treated] were added to the supernatant to acidify the contents, and the RNA was precipitated by adding 0.7 volumes of ethanol after 1 hour incubation at −80° C. following centrifugation at 10,000 rpm for 10 minutes. The RNA pellet was subsequently dissolved in DEPC-treated water and reprecipitated using ⅓ volume of 8 M LiCl (overnight at 4° C.). The RNA sample was subsequently washed with 80% ethanol and dissolved in DEPC-water after drying, and quantified spectrophotometrically. Suspension cultures of Radon variety were also treated in the same way under anaerobic conditions. Cycloheximide was added at a final concentration of 100 μM, and anaerobic conditions were applied for various time periods after 30 minutes pretreatment. RNA was isolated using the same procedure described above.
Ten μg of total RNA isolated from suspension cells (Radon variety) was loaded in each lane and was resolved in 1.2% formaldehyde-agarose gel according to standard procedures. […]

rice suspension cells [3] = assay: Protein synthesis in rice suspension cells; format: cell-based; details: cycloheximide at 20 to 300 μM

2.38 kb region: about 2.38 kb 5' upstream region of the rice pdc2 gene (hypoxia inducible promoter), fused to the uidA gene
GUS activity (rice suspension cells [1]): showed GUS activity

C[C@@H]1C[C@@H]([C@H](O)CC2CC(=O)NC(=O)C2)C(=O)[C@@H](C)C1 [cycloheximide]
induction of pdc genes (pdc genes): reduce the induction of pdc genes; also recorded: reduced induction
induction of Adh gene ([2]; 100 μM cycloheximide, anaerobic conditions, suspension cells): down-regulated; also recorded: reduced induction
Adh transcripts [2]: induced Adh transcripts
Adh transcripts ([2]; listed as Cycloheximide): induced Adh messages
protein synthesis (rice suspension cells [3]): reduce protein synthesis
